Reference: US20260085062A1, “NOVEL COMPOUNDS AS CK2 INHIBITORS” (Cambridge Enterprise Limited, priority 2022, published 2026)
pIC50: −log10 of the molar value.

Tests used:
CLK2 = target: T1, CLK2 (Homo sapiens, UniProt P49760); assay: Biochemical assay for inhibitors of CLK2 kinase activity (ADP-Glo); details: 20 nM CLK2, 50 μM peptide substrate, 100 μM ATP, read-out: Assay 2: CLK2 Enzyme IC50
T1 construct: purchased Carna Biosciences 04-127
Description: The inhibitory activity of putative kinase inhibitors and the potency of selected compounds were determined using ADP-GloTM assay. The kinase reaction was performed in the presence of excess peptide substrate and ATP at a concentration equivalent to Km. Upon termination of the kinase reaction, remaining ATP was depleted leaving only ADP reaction product, which was converted back to ATP with a coupled luciferin/luciferase reaction. The luminescent output from the coupled reaction was quantified and correlated with the kinase activity. […] The assay was conducted as follows: • 1. […] After 120 minutes, the reaction was stopped by addition of 5 pl ADP-Glo reagent (Promega V9102) and the plate incubated at RT for a further 60 minutes. • 5. 10 μL of Kinase Detection reagent (Promega V9102) was added to assay plate and incubated for a further 30 minutes prior to reading luminescence on an Envision (Perkin-Elmer). Data was analysed to calculate compound IC50and Ki as follows: • 1. […] Morrison Ki was determined using Morrison Ki equation (XL-fit).

CK2α = target: T2, CK2α (Homo sapiens, UniProt P68400); assay: Biochemical assay for inhibitors of CK2α kinase activity (ADP-Glo); details: 0.2 nM CK2α, 50 μM peptide substrate, 15 μM ATP, read-out: Assay 1: CK2α Enzyme IC50
T2 construct: CK2α (residues 2-329) was produced in Escherichia coli BL21 (DE3) for kinase activity screening; His6 (N, cleaved yes); made in house; host or cells: Escherichia coli BL21 (DE3)
T2 sequence (P68400 2-329): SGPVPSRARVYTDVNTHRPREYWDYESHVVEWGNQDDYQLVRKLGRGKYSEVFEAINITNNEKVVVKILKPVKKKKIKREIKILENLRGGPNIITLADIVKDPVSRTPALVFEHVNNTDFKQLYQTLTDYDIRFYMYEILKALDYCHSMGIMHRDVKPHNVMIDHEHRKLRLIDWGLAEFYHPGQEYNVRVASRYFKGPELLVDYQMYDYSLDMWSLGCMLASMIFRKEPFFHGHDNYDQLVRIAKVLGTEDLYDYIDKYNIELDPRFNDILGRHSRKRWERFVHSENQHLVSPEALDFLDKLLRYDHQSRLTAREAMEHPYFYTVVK
Description: The inhibitory activity of putative kinase inhibitors and the potency of selected compounds were determined using ADP-Glo™ assay. The kinase reaction was performed in the presence of excess peptide substrate and ATP at a concentration equivalent to Km. Upon termination of the kinase reaction, remaining ATP was depleted leaving only ADP reaction product, which was converted back to ATP with a coupled luciferin/luciferase reaction. The luminescent output from the coupled reaction was quantified and correlated with the kinase activity. […] Single colonies of the cells were grown in 6×1 L of 2×TY with 100 μg/mL ampicillin at 37° C. […] The cells were incubated overnight at 25° C. then harvested by centrifugation at 4,000 g for 20 minutes. The cell pellets were suspended in 20 mM Tris, 500 mM NaCl, pH 8.0 and lysed using a high pressure homogenizer. Protease inhibitor cocktail tablets (one tablet per 50 mL extract; Roche Diagnostics) and DNase I were then added. The crude cell extract was then centrifuged at 10,000 g for 45 minutes, the supernatant was filtered with a 0.22 μm filter. The soluble supernatant was applied on a Ni Sepharose Fast Flow6 column at pH 8.0, washed and eluted in 20 mM Tris pH 8.0, 500 mM NaCl, 200 mM imidazole. […] The cleaved protein was further purified on a Sepharose Q HP anion-exchange column and the main peak fraction from this column was further purified by gel filtration on a Superdex 75 16/60 HiPrep column equilibrated with Tris 20 mM, pH 8.0, 500 mM NaCl. Pure protein was concentrated to 15 mg/mL and flash frozen in liquid nitrogen. […] The assay was conducted as follows: • 1. […] After 120 minutes, the reaction was stopped by addition of 5 pl ADP-Glo reagent (Promega V9102) and the plate incubated at RT for a further 60 minutes. • 5. 10 μL of Kinase Detection reagent (Promega V9102) was added to assay plate and incubated for a further 30 minutes prior to reading luminescence on an Envision (Perkin-Elmer). Data was analysed to calculate compound IC50and Ki as follows: • 1. […] Percent activity was calculated for each well using: (Test well reading−MEAN100%inhibition control wells)/(MEAN0% inhibition control wells−MEAN100%inhibition control wells). • 5. Morrison Ki was determined using Morrison Ki equation (XL-fit).

intracellular CK2α = target: T3, intracellular CK2α (Homo sapiens, UniProt P19784); assay: Cell-based NanoBRET assay for inhibitor binding to intracellular CK2α; details: HCT116 cells transiently transfected with CSNK2A2-NanoLuc fusion vector; Tracer K-5; 2 h; read-out: Assay 3: NanoBRET ™ assay for binding to intracellular CK2α
T3 construct: host or cells: HCT116 (ATCC CCL-247)
Description: This assay used the NanoBRET™ System (Promega), an energy transfer technique designed to measure molecular proximity in living cells. The assay measured the apparent affinity of test compounds by competitive displacement of a NanoBRET™ tracer reversibly bound to a NanoLucR luciferase CK2α fusion protein in cells. A fixed concentration of tracer was added to cells expressing the desired NanoLucR-CK2α fusion protein to generate a BRET reporter complex. […] Donor emission wavelength (450 nm) and acceptor emission wavelength (610 nm or 630 nm) were measured on the Envision (Perkin-Elmer) and BRET ratio calculated for data analysis: BRET Ratio=(Acceptorsample/Donorsample)×1,000. • 7.

T3 sequence (P19784 whole entry, the tested form may be a part): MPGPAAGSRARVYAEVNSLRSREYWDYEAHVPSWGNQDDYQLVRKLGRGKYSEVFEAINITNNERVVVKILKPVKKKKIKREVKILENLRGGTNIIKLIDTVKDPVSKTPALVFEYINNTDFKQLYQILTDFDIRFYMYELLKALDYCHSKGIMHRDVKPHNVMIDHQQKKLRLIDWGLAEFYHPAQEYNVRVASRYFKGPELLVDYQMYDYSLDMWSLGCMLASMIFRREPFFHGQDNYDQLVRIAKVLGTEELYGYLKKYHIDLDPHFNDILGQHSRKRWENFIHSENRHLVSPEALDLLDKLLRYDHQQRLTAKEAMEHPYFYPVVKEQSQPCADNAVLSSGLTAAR
T1 sequence (P49760 whole entry): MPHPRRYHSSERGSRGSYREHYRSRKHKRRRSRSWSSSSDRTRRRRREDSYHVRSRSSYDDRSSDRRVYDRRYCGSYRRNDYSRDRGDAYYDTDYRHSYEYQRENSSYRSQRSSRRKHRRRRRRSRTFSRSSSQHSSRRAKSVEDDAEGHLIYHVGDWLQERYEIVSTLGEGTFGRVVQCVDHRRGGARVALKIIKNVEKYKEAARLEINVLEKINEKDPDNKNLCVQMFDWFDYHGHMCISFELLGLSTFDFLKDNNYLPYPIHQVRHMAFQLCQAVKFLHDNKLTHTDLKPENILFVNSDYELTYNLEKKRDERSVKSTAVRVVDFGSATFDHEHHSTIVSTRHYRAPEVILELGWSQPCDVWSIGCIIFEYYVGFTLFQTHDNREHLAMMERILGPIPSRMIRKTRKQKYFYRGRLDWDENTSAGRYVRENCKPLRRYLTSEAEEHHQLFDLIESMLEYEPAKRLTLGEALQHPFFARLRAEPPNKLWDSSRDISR

Row | pIC50 (CLK2) | pIC50 (CK2α) | pIC50 (intracellular CK2α) | SMILES
1 | 4.40 | 6.73 | 4.71 | N#CCc1cc(CNCCCCOC2CN(c3cc(-c4ccnnc4)cc4[nH]nnc34)C2)cc(OC(F)(F)F)c1 [Example 151, 2-(3-(((4-((1-(6-(pyridazin-4-yl)-1H-benzo[d][1,2,3]triazol-4-yl)azetidin-3-yl)oxy)butyl)amino)methyl)-5-(trifluoromethoxy)phenyl)acetonitrile]
2 | 6.78 | 7.67 | 5.27 | N#CCc1cc(CNCCCCOC2CN(c3cc(-n4cnnc4)cc4[nH]ncc34)C2)cc(C(F)(F)F)c1 [Example 105, 2-(3-(((4-((1-(6-(4H-1,2,4-triazol-4-yl)-1H-indazol-4-yl)azetidin-3-yl)oxy)butyl)amino)methyl)-5-(trifluoromethyl)phenyl)acetonitrile]
3 | 6.97 | 9.27 | 7.15 | O=C(CCNCc1ccc(-c2ccccc2)c(Cl)c1)NCCCNc1cc(-c2cnoc2)cc2[nH]ncc12 [Example 28, 3-(((2-chloro-[1,1′-biphenyl]-4-yl)methyl)amino)-N-(3-((6-(isoxazol-4-yl)-1H-indazol-4-yl)amino)propyl)propanamide]
4 | 6.88 | 9.24 | 6.07 | CNc1n[nH]c2cc(-n3cnnc3)cc(NCCCNC(=O)CCNCc3ccc(OC(F)(F)F)c(Cl)c3)c12 [Example 191, 3-((3-chloro-4-(trifluoromethoxy)benzyl)amino)-N-(3-((3-(methylamino)-6-(4H-1,2,4-triazol-4-yl)-1H-indazol-4-yl)amino)propyl)propanamide]
5 | 7.15 | 8.48 | 5.00 | O=C(CCNCc1n[nH]c(-c2ccccc2)c1Cl)NCCCNc1cc(-n2cnnc2)cc2[nH]ncc12 [Example 34, N-(3-((6-(4H-1,2,4-triazol-4-yl)-1H-indazol-4-yl)amino)propyl)-3-(((4-chloro-5-phenyl-1H-pyrazol-3-yl)methyl)amino)propanamide]
6 | 6.72 | 8.43 | 7.00 | O=C(CCNCc1ccc(OC(F)(F)F)c(Cl)c1)NCCCNc1cc(-c2ccncc2)c(F)c2[nH]ncc12 [Example 180, 3-((3-chloro-4-(trifluoromethoxy)benzyl)amino)-N-(3-((7-fluoro-6-(pyridin-4-yl)-1H-indazol-4-yl)amino)propyl)propanamide]
7 | 6.82 | 8.09 | 6.52 | N#CCc1cc(CNCCCCOC2CN(c3cc(-c4cnoc4)cc4[nH]ncc34)C2)cc(OC(F)(F)F)c1 [Example 146, 2-(3-(((4-((1-(6-(isoxazol-4-yl)-1H-indazol-4-yl)azetidin-3-yl)oxy)butyl)amino)methyl)-5-(trifluoromethoxy)phenyl)acetonitrile]
8 | 5.06 | 6.67 | 4.98 | O=C(CCNCc1ccc(-c2ccccc2)c(Cl)c1)NCCCNc1cc(C2CCOCC2)cc2[nH]ncc12 [Example 90, 3-(((2-chloro-[1,1′-biphenyl]-4-yl)methyl)amino)-N-(3-((6-(tetrahydro-2H-pyran-4-yl)-1H-indazol-4-yl)amino)propyl)propanamide]
9 | 6.20 | 6.69 | 4.85 | OCc1cc(CNCCCCOC2CN(c3cc(-c4ccnnc4)cc4[nH]ncc34)C2)cc(C(F)(F)F)c1 [Example 112, (3-(((4-((1-(6-(pyridazin-4-yl)-1H-indazol-4-yl)azetidin-3-yl)oxy)butyl)amino)methyl)-5-(trifluoromethyl)phenyl)methanol]
10 | 6.00 | 6.75 | 4.81 | O=C(CCNCCCNCc1ccc(OC(F)(F)F)c(Cl)c1)Nc1cc(-n2cnnc2)cc2[nH]ncc12 [Example 66, N-(6-(4H-1,2,4-triazol-4-yl)-1H-indazol-4-yl)-3-((3-((3-chloro-4-(trifluoromethoxy)benzyl)amino)propyl)amino)propanamide]
11 | < 4.30 | 6.61 | < 4.30 | FC(F)(F)c1ccc2[nH]c(CNCCCCOCCOc3cc(-n4cnnc4)cc4[nH]nnc34)cc2c1 [Example 116, 4-(2-((6-(4H-1,2,4-triazol-4-yl)-1H-benzo[d][1,2,3]triazol-4-yl)oxy)ethoxy)-N-((5-(trifluoromethyl)-1H-indol-2-yl)methyl)butan-1-amine]
12 | 6.43 | 7.38 | 4.57 | Cc1cc(CC#N)cc(CNCCCCOC2CN(c3cc(-n4cnnc4)cc4[nH]ncc34)C2)c1 [Example 106, 2-(3-(((4-((1-(6-(4H-12,4-triazol-4-yl)-1H-indazol-4-yl)azetidin-3-yl)oxy)butyl)amino)methyl)-5-methylphenyl)acetonitrile]
13 | 6.39 | 9.05 | 7.12 | O=C(CCNCc1ccc(-c2ccccc2)c(Cl)c1)NCCCNc1cc(-c2ccncn2)cc2[nH]ncc12 [Example 75, 3-(((2-chloro-[1,1′-biphenyl]-4-yl)methyl)amino)-N-(3-((6-(pyrimidin-4-yl)-1H-indazol-4-yl)amino)propyl)propanamide]
14 | 6.49 | 6.98 | 4.81 | OCc1cc(Cl)cc(CNCCCCOC2CN(c3cc(-n4cnnc4)cc4[nH]ncc34)C2)c1 [Example 130, (3-(((4-((1-(6-(4H-1,2,4-triazol-4-yl)-1H-indazol-4-yl)azetidin-3-yl)oxy)butyl)amino)methyl)-5-chlorophenyl)methanol]
15 | 6.46 | 9.11 | 6.23 | FC(F)(F)Oc1ccc(CNCCCCNCCNc2cc(-n3cnnc3)cc3[nH]ncc23)cc1Cl [Example 24, N^1-(2-((6-(4H-1,2,4-triazol-4-yl)-1H-indazol-4-yl)amino)ethyl)-N^4-(3-chloro-4-(trifluoromethoxy)benzyl)butane-1,4-diamine]
16 | 5.83 | 7.62 | 5.60 | Cc1c(-c2ccncc2)cc(NCCCNC(=O)CCNCc2ccc(OC(F)(F)F)c(Cl)c2)c2cn[nH]c12 [Example 178, 3-((3-chloro-4-(trifluoromethoxy)benzyl)amino)-N-(3-((7-methyl-6-(pyridin-4-yl)-1H-indazol-4-yl)amino)propyl)propanamide]

Row | SMILES | pIC50 (CLK2) | pIC50 (CK2α) | pIC50 (intracellular CK2α)
17 | Clc1ccc2cc(CNCCCCOCCNc3cc(-n4cnnc4)cc4[nH]ncc34)[nH]c2c1 [Example 52, N-(2-(4-(((6-chloro-1H-indol-2-yl)methyl)amino)butoxy)ethyl)-6-(4H-1,2,4-triazol-4-yl)-1H-indazol-4-amine] | 7.42 | 8.84 | 6.53
